Consider eleven compounds from ChEMBL document CHEMBL3045800 (2003).

For one test, the system named is Oryza sativa. The class given is functional,  cv. Nipponbare.
For test [1], the system named is Pyricularia oryzae. Put plainly: Inhibition of appressorium formation in Magnaporthe oryzae at 20 ppm after 48 hr by microscopy based cellulose membrane method. The format is functional. The following applies: read-out: INH.
For test [2], the system named is Pyricularia oryzae. Put plainly: Inhibition of spore germination in Magnaporthe oryzae at 40 ppm after 48 hr. As to conditions: read-out: INH. The class given is functional.
Test [3] deals with Pyricularia oryzae. Briefly: Inhibition of spore germination in Magnaporthe oryzae at 80 ppm after 48 hr. The class given is functional. As to conditions: read-out: INH.
For test [4], the system named is Pyricularia oryzae. Put plainly: Inhibition of mycelial growth in Magnaporthe oryzae at 1000 ppm after 7 days by hyphal growth inhibition assay. As to conditions: 168 h, read-out: INH. The class given is functional.
The subject of test [5] is Pyricularia oryzae. Briefly: Inhibition of appressorium formation in Magnaporthe oryzae at 100 ppm after 48 hr by microscopy based cellulose membrane method. The format is functional. The following applies: read-out: INH.
In test [6] the test system is Pyricularia oryzae. Put plainly: Inhibition of spore germination in Magnaporthe oryzae at 20 ppm after 48 hr. The class given is functional. As to conditions: read-out: INH.
Test [7] deals with Pyricularia oryzae. Put plainly: Inhibition of mycelial growth in Magnaporthe oryzae at 200 ppm after 7 days by hyphal growth inhibition assay. The format is functional. As to conditions: 168 h, read-out: INH.
In test [8] the test system is Pyricularia oryzae. Briefly: Inhibition of spore germination in Magnaporthe oryzae at 100 ppm after 48 hr. The format is functional. The following applies: read-out: INH.
Test [9] concerns Pyricularia oryzae. Put plainly: Inhibition of appressorium formation in Magnaporthe oryzae at 40 ppm after 48 hr by microscopy based cellulose membrane method. The format is functional. As to conditions: read-out: INH.
For test [10], the system named is Pyricularia oryzae. Briefly: Inhibition of mycelial growth in Magnaporthe oryzae at 400 ppm after 7 days by hyphal growth inhibition assay. The format is functional. As to conditions: 168 h, read-out: INH.
In test [11] the test system is Pyricularia oryzae. Put plainly: Inhibition of mycelial growth in Magnaporthe oryzae at 800 ppm after 7 days by hyphal growth inhibition assay. The format is functional. As to conditions: 168 h, read-out: INH.
Test [12] deals with Pyricularia oryzae. Put plainly: Inhibition of appressorium formation in Magnaporthe oryzae at 80 ppm after 48 hr by microscopy based cellulose membrane method. The class given is functional. As to conditions: read-out: INH.

The compound `Cn1ncc(C(=O)O)c1Cl` registered an ED80 with Oryza sativa greater than 5 mg.

`Cn1cc(C(=O)O)c(Cl)n1` showed an ED80 with Oryza sativa of 0.5 mg.

Regarding `COC(=O)Nc1cc(Cl)nn1C`, the ED80 in the test with Oryza sativa is listed as greater than 5 mg.

`Cn1nc(Cl)cc1CC(=O)O` registered an ED80 in the test with Oryza sativa of 5 mg.

In the test on Oryza sativa, `CC(=O)c1cc(Cl)nn1C` yielded an ED80 of 5 mg.

In the test with Oryza sativa, `Cn1nc(Cl)cc1C=O` had an ED80 greater than 5 mg.

In the test with Oryza sativa, `COC(=O)c1cc(Cl)nn1C` showed an ED80 of 0.05 mg.

In the case of `Cn1nc(Br)cc1C(=O)O`, in the test on Oryza sativa, the ED80 turned out to be 0.05 mg.

`Cc1cc(C(=O)O)n(C)n1`: the ED80 in the test with Oryza sativa amounted to 0.5 mg.

Turning to `Cn1nccc1C(=O)O`, in the test on Oryza sativa, the ED80 was greater than 5 mg.

As to `Cn1nc(Cl)cc1C(=O)O` [3-CHLORO-1-METHYL-1H-PYRAZOLE-5-CARBOXYLIC ACID], the inhibition at 20 ppm in the test with Pyricularia oryzae [1] and in the test on Pyricularia oryzae [6] was 0% in each case. Also, the inhibition at 40 ppm in the test on Pyricularia oryzae [2] and in the test on Pyricularia oryzae [9] was 0% each time. In addition, the inhibition at 80 ppm in the test on Pyricularia oryzae [3] came to 0%; in the test with Pyricularia oryzae [12] it was 10%. Further, the inhibition at 1000 ppm in the test with Pyricularia oryzae [4] amounted to 47.5%. Further, the inhibition at 100 ppm in the test with Pyricularia oryzae [5] worked out at 41.6%; in the test with Pyricularia oryzae [8] it was 35.4%. Besides, the inhibition at 200 ppm in the test on Pyricularia oryzae [7] stood at 0%. The ED80 with Oryza sativa came to 0.05 mg. In addition, the inhibition at 400 ppm in the test on Pyricularia oryzae [10] came to 0%. In addition, the inhibition at 800 ppm with Pyricularia oryzae [11] was found to be 0%.
